Data set [1] addresses T1, CYP2D6 (Homo sapiens, UniProt P10635). The experiment in a line: Static DDI risk prediction, unbound [I]/Ki.
Data set [2] can be described thus: Drug specific pharmacokinetic parameters used for simulations. The format is in vivo, human.
For data set [3] the following is noted: parameter used for simulations; ref SimCYP compound library; cited from earlier work.
The test system of data set [4] is CYP3A4 mRNA. The experiment in a line: CYP3A4 mRNA induction in cryopreserved human hepatocytes. It is filed as cell-based.
The target in data set [5] is T1, CYP2D6. The experiment in a line: Reversible CYP2D6 inhibition. The format is biochemical.
For data set [6] the following is noted: cited from earlier work.
In data set [7] the test system is Caco-2. To be noted: ADAM model input; cited from earlier work.
Data set [8] deals with T2, CYP2C19 (Homo sapiens, UniProt P33261). To be noted: from AUC ratio in CYP2C19 poor and extensive metabolizers; cited from earlier work.
The conditions of data set [9]: cited from earlier work; for CLpo: calculated from reported CLiv and bioavailability.
The subject of data set [10] is CYP2C19. The experiment in a line: Clinical cocktail DDI study with fluoxetine, omeprazole probe. To be noted: human, plasma, oral. It is filed as in vivo, human.
The target of data set [11] is T2, CYP2C19. The data set is described as above. It is filed as in vivo. To be noted: for Cmax / half-life: both, human, plasma, oral; for half-life: probe omeprazole.
In data set [12] the target is CYP3A4 (Homo sapiens, UniProt P08684). To be noted: parameter used for simulations; ref SimCYP compound library; cited from earlier work.
Setting [13] is: parameter used for simulations, ref SimCYP compound library.
[14] abbreviates: estimated to achieve desired distribution kinetics.

Each structure is given as a SMILES string. Read-outs that look alike come from different tables or passages of the source. Marks after values point to notes of the source that are not given here.

We go through two compounds from publication PMC4029899 (Clinical pharmacology and therapeutics, 2014).

As usually defined, the EC50 is the concentration needed to bring the measured effect to its halfway point. As usually defined, the Ki is the dissociation constant of the complex between target and ligand, obtained from inhibition or displacement. For orientation: LogP means the decadic logarithm of the partition coefficient of the neutral form, usually between octanol and water. A word on the Cmax: it is the maximum level reached in the sampled fluid or tissue. As usually defined, the half-life is the time in which the quantity being followed falls by half.

T2 sequence (P33261 whole entry): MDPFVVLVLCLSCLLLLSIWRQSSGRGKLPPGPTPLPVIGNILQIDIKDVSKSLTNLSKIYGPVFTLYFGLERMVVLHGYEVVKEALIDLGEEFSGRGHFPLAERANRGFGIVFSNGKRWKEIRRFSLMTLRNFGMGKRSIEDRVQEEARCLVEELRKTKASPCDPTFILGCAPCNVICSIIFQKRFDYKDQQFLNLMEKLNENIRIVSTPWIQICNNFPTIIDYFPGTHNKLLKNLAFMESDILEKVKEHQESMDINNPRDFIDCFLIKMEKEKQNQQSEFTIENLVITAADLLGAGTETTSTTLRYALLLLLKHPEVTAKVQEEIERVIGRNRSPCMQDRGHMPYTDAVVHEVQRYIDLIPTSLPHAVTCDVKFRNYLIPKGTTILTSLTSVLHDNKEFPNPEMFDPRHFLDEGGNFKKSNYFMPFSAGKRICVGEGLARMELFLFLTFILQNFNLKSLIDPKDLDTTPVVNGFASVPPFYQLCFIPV
T1 sequence (P10635 whole entry): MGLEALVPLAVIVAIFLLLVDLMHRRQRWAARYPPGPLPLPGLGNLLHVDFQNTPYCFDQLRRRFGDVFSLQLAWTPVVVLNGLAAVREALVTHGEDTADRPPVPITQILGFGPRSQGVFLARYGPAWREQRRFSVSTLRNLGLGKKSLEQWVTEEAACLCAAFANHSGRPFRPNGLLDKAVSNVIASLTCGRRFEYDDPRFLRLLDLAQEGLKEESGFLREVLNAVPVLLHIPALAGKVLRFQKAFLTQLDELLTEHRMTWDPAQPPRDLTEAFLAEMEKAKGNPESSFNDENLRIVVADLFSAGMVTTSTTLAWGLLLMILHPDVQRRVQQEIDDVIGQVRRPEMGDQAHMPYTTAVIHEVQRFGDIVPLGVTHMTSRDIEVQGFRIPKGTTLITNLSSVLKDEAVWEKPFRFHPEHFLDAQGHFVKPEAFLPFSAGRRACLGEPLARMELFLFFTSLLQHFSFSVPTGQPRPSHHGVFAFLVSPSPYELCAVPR
Sequence of CYP3A4 (P08684 whole entry): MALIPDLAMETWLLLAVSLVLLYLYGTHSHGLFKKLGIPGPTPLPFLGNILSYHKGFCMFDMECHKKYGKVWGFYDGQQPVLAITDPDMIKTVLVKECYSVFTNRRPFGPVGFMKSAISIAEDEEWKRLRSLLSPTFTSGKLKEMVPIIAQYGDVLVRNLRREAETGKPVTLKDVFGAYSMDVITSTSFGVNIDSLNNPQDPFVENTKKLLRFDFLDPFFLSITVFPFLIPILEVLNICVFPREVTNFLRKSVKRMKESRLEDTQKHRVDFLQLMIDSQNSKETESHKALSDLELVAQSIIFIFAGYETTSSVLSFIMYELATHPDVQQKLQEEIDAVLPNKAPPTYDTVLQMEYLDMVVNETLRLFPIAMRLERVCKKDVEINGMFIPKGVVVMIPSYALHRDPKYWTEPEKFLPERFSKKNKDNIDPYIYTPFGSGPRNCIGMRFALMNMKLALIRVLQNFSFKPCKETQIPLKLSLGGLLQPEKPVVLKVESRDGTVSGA

On to `NCC[C@H](Oc1ccc(C(F)(F)F)cc1)c1ccccc1` [(S)-norfluoxetine], for which, in [1], the “predicted share of the in vivo CYP2D6 inhibition” value was approximately 40%. For the same compound, the CLIV in [2] (estimated to reflect the reported t1/2 following a single oral dose) is 5.8 L/h. Further, the fu in data set [3] is reported as 0.13. Besides, in data set [4] (hepatocytes from three donors), the “Imax, CYP3A4 mRNA induction” value was determined as 2.6 fold. The EC50 at 48 h in [4] (human, cryopreserved human hepatocytes) was 3900 nM. The “CYP3A4 Emax” value in data set [4] (mRNA induction, not scaled to Rifampin) came to 2.6. Further, the Ki in data set [5] was found to be 35 nM. For the same compound, in data set [6] (setting [13]), the LogP is given as 3.8 and the “pKa 1” value was 9.

Take `COc1ccc2[nH]c([S+]([O-])Cc3ncc(C)c(OC)c3C)nc2c1` (stereo not drawn) [Omeprazole]: the Caco-2 permeability in data set [7] is reported as 26.2*10^−06 cm/s. The “fm CYP2C19” value in data set [8] was 0.93 ^e. In addition, in data set [2] (setting [14]), the Vsac is recorded as 0.1 L/kg and the “Vsac Q” value is 10 L/h. For the same compound, the fu in [3] is given as 0.043. The CLpo in data set [9] is recorded as 80 ^b L/hr. Besides, the CLpo in [9] (listed as omeprazole) is 80 L/h. For the same compound, the CLr in data set [9] (setting [13]) is 0.037 L/h. Besides, in data set [9] (previously reported), the Vss was 0.24 ^b L/kg. Besides, the concentration at 12 h in data set [10] amounted to 34 nM. The “decrease in oral CL” value in data set [11] (after 12 days of fluoxetine) was determined as 86%. Also, the “change in t1/2” value in [11] (after fluoxetine) is on record as “unchanged”. In addition, in data set [11] (after fluoxetine dosing), the “increase in AUC0-∞ compared to control” value turned out to be 7.1 fold. Moreover, in [11], the Cmax stood at 2500 ± 1400 nM and the half-life was 1.3 ± 0.1 h. In data set [11] (20 mg), this compound had a Cmax of 660 ± 380 nM and a half-life of 1.2 ± 0.5 h. Moreover, the “omeprazole concentrations, other subjects” value in data set [11] (fluoxetine administration day) came to 2800 ± 1200 nM. Besides, in data set [11] (fluoxetine administration day, except 12-hour sample), the “omeprazole concentrations, excluded outlier subject” value was less than 4 nM. For the same compound, the “fm CYP3A4” value in data set [12] was 0.07. For the same compound, the intrinsic solubility in [6] (ADAM model input) is 250 µg/mL.
